# In US10988459B2 (priority 2015, dated 2021):
# Like-named read-outs stand apart in the source and are kept apart here.
# Target: human RIP1 kinase domain (2-375) (Homo sapiens (Human), UniProt Q13546)
# Experiment: biochemical
# Assay type: biochemical
# Conditions: 50 uM ATP
# How it was run: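 50 nM purified kinase domain from baculovirus-infected insect cells, incubated 2 h with compound in 50 mM Hepes pH 7.5, 30 mM MgCl2, 1 mM DTT, 50 uM ATP, 0.002% Brij-35, 0.5% DMSO. ADP formation read by Transcreener FP at 633 nm excitation. Ki^app fitted with the Morrison tight-binding equation.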
# [1] = tight-binding apparent inhibition constant, human RIP1 kinase domain (2-375) 50 nM, 2 hours, read-out: Ki
# [2] = human RIP1 kinase domain (2-375), 2 hours incubation, Transcreener ADP assay, read-out: RIP1 Ki
# [3] = Table 5, apparent Ki (Morrison tight-binding fit), 50 nM RIP1 kinase domain, 2 hours incubation, read-out: Ki
# [4] = human RIP1 kinase domain (2-375), Transcreener ADP assay, 2 hours incubation, read-out: RIP1 Ki
# Sequence of human RIP1 kinase domain (2-375) (Q13546 2-375): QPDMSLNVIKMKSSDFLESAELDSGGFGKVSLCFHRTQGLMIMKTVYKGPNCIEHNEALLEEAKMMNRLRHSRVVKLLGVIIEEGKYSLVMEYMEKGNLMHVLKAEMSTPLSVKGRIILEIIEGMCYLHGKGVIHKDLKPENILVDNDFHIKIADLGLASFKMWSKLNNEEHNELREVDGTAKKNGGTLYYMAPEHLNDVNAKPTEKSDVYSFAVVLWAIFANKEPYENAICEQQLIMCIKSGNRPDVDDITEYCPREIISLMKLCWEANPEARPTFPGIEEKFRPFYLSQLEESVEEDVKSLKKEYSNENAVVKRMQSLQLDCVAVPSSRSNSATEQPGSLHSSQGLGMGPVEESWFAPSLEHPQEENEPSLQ
smiles,measurement,setting,value
"CC(C)c1cccc2nc(C(=O)N[C@H]3COc4ccccc4N(C)C3=O)nn12 [Example 406, (S)-5-isopropyl-N-(5-methyl-4-oxo-2,3,4,5-tetrahydrobenzo[b][1,4]oxazepin-3-yl)-[1,2,4]triazolo[1,5-a]pyridine-2-carboxamide]",Ki,[1],4.72 nM
"CN1C(=O)[C@@H](NC(=O)c2nccc(C3(O)CCCC3)n2)COc2ccccc21 [Example 509, 4-(1-hydroxycyclopentyl)-N-[(3S)-5-methyl-4-oxo-2,3-dihydro-1,5-benzoxazepin-3-yl]pyrimidine-2-carboxamide]",Ki,[1],440 nM
"CN1C(=O)C(NC(=O)c2nnc(Cc3ccccc3)[nH]2)CCn2ccnc21 (stereo not shown) [Example 175, 5-benzyl-N-(9-methyl-8-oxo-6,7,8,9-tetrahydro-5H-imidazo[1,2-a][1,3]diazepin-7-yl)-4H-1,2,4-triazole-3-carboxamide]",Ki,[2],212 nM
"Cc1cc2n(n1)CC[C@H](NC(=O)c1cc3c(Br)cccc3cn1)C(=O)N2C (racemic) [Example 701, 5-bromo-N-[rac-(6S)-2,4-dimethyl-5-oxo-7,8-dihydro-6H-pyrazolo[1,5-a][1,3]diazepin-6-yl]isoquinoline-3-carboxamide]",Ki,[3],618 nM
"CC(C)[C@@H]1CCc2nc(C(=O)N[C@H]3CCn4nccc4N(C)C3=O)nn21 (single isomer, unassigned) [Example 353]",Ki,[1],49.8 nM
"CN1C(=O)[C@@H](NC(=O)c2ncn(Cc3ccccc3)n2)CCCn2nccc21 [Example 155, (S)-1-benzyl-N-(4-methyl-5-oxo-4,5,6,7,8,9-hexahydropyrazolo[1,5-a][1,3]diazocin-6-yl)-1H-1,2,4-triazole-3-carboxamide]",Ki,[2],38.2 nM
"CN1C(=O)[C@@H](NC(=O)c2nc3n(n2)[C@@H](c2ccccc2)CCC3)COc2ccccc21 (single isomer, unassigned) [Example 734]",Ki,[3],149 nM
"CN1C(=O)[C@@H](NC(=O)c2nc3n(n2)CCNC3c2ccccc2)COc2ccccc21 (stereo partly drawn) [Example 452, N—((S)-5-methyl-4-oxo-2,3,4,5-tetrahydrobenzo[b][1,4]oxazepin-3-yl)-8-phenyl-5,6,7,8-tetrahydro-[1,2,4]triazolo[1,5-a]pyrazine-2-carboxamide]",Ki,[1],206 nM
"CN1C(=O)[C@@H](NC(=O)c2cc3n(n2)CCC[C@@H]3c2ccccc2F)COc2ccccc21 [Example 709, (4R)-4-(2-fluorophenyl)-N-[(3S)-5-methyl-4-oxo-2,3-dihydro-1,5-benzoxazepin-3-yl]-4,5,6,7-tetrahydropyrazolo[1,5-a]pyridine-2-carboxamide]",Ki,[3],34 nM
"CN1C(=O)[C@@H](NC(=O)c2ncn(Cc3ccccc3)n2)CCn2nc([C@@H]3CC3(F)F)cc21 [Example 147, 1-benzyl-N-((S)-2-((S)-2,2-difluorocyclopropyl)-4-methyl-5-oxo-5,6,7,8-tetrahydro-4H-pyrazolo[1,5-a][1,3]diazepin-6-yl)-1H-1,2,4-triazole-3-carboxamide]",Ki,[2],46.2 nM
"CN1C(=O)[C@@H](NC(=O)c2n[nH]c3c2CCC(c2ccccc2)C3)COc2ccccc21 (stereo partly shown) [Example 12, N-(5-methyl-4-oxo-2,3,4,5-tetrahydrobenzo[b][1,4]oxazepin-3-yl)-6-phenyl-4,5,6,7-tetrahydro-1H-indazole-3-carboxamide]",Ki,"Table 1, apparent Ki (Morrison tight-binding fit), 50 nM RIP1 kinase domain, 2 hours incubation, read-out: RIP1 Ki",> 3100 nM
"Cc1cc2n(n1)CCC(NC(=O)c1ncn(Cc3ccc(F)cc3)n1)C(=O)N2C (stereo not shown) [Example 268, N-(2,4-dimethyl-5-oxo-5,6,7,8-tetrahydro-4H-pyrazolo[1,5-a][1,3]diazepin-6-yl)-1-(4-fluorobenzyl)-1H-1,2,4-triazole-3-carboxamide]",Ki,[4],97.7 nM
"CC[C@]1(C)OCc2cc(C(=O)NC3CCn4nc(-c5ccccc5)cc4N(C)C3=O)ncc21 (stereo partly drawn) [Example 265, (3S)-3-ethyl-3-methyl-N-(4-methyl-5-oxo-2-phenyl-5,6,7,8-tetrahydro-4H-pyrazolo[1,5-a][1,3]diazepin-6-yl)-1,3-dihydrofuro[3,4-c]pyridine-6-carboxamide]",Ki,[4],4900 nM
